Assay results published in patent US20050256304A1, “Modified factor VIII” (priority 2002, published 2005).

What was measured:
naïve human T-cells = experiment: Naïve T cell epitope map: ex vivo T-cell proliferation using PBMC from healthy donors; assay type: cell-based; conditions: cells of a healthy non haemophiliac individual
From the text: This approach has proven to be a particularly effective method and is disclosed herein as an embodiment of the invention. The method can be applied to test part of the sequence, for example a FVIII protein lacking all or part of the B-domain; the method can be applied to selected regions of the sequence, for example a sub-set of FVIII peptides such as all or some of those listed in FIG. 1; or the method may be applied to test whole FVIII sequence. In the present studies, the method has involved the testing of overlapping FVIII-derived peptide sequences in a scheme so as to scan and test a FVIII sequence lacking the B-domain. The synthetic peptides are tested for their ability to evoke a proliferative response in human T-cell cultured in vitro. […] The stimulation index is conventionally derived by division of the proliferation score (e.g. counts per minute of radioactivity if using ^3H-thymidine incorporation) measured to the test peptide by the score measured in cells not contacted with a test peptide.
Blood from 40 healthy HLA-DR typed donors was used to isolate PBMC which were used to screen individual FVIII peptides at two concentrations (1 and 5 μM). […] MHC allotypes were detected using
PBMC contain physiological numbers of naïve T cells and antigen presenting cells. […] Cultures were harvested onto filtermats and the cpm/well was determined using a Wallac Microplate Beta counter.

[1] = tested on: T-cells derived from haemophiliac patients; experiment: T-cell proliferation with FVIII specific T cell lines from haemophiliac patients; assay type: cell-based, human; conditions: T-cells from haemophiliac blood
From the text: In a further embodiment of this approach, the inventors have provided a method whereby the FVIII sequence is scanned for the presence and location of T-cell epitopes using ex vivo biological T-cell assays where the T-cells are derived from haemophiliac patients. For a proportion of such patients the FVIII protein constitutes a foreign protein and a potent antigen in vivo. The inventors have established that it is possible to derive polyclonal and in principle mononclonal T-cell lines in vitro from the PBMC of such individuals and these lines may be used as effective reagents in the mapping of T-cell epitopes within the FVIII protein. […]
In the present case in the synthetic peptides were analysed using a system of pools each containing 8 different peptide sequences. […] These cells are stimulated with antigen (e.g. synthetic peptide or whole protein) using most preferably autologous antigen presenting cells as previously for around 4 days and the subsequent proliferative response (if any) is measured thereafter. […] In this way any individual T-cell epitope is represented in 2 separate pools and induced proliferation will be detected from treatments using both of those pools. Where a proliferative response is detected to any given peptide pool, the peptide pool is decoded repeating the assay using the individual pool members in isolation. […]

Sequence	proliferation of ex vivo T-cells (naïve human T-cells)	proliferation of ex vivo T-cells [1]
ISQFIIMYSLDGKKW [Peptide P10]	able to evoke proliferation of ex vivo T-cells	able to evoke proliferation of ex vivo T-cells
IARYIRLHPTHYSIRSTLRM [Peptide P11]	–	active
